Source: PubChem BioAssay (NCI)
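The compound was tested at five concentrations on cells cultured in 96-well plates, with a 48-hour exposure period. GI50 marks 50% less growth. TGI denotes the concentration required for complete inhibition of growth.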

Key:
Assay in all cases: DTP human tumour cell line panel, 48 h
NCI-H460 lung = tested on: NCI-H460 lung
RXF 393 renal = tested on: RXF 393 renal
COLO 205 colon = tested on: COLO 205 colon
SK-MEL-28 melanoma = tested on: SK-MEL-28 melanoma
SK-MEL-5 melanoma = tested on: SK-MEL-5 melanoma
U251 CNS = tested on: U251 CNS
SW-620 colon = tested on: SW-620 colon
HCT-116 colon = tested on: HCT-116 colon
SF-295 CNS = tested on: SF-295 CNS
MDA-MB-435 = tested on: MDA-MB-435
OVCAR-4 ovarian = tested on: OVCAR-4 ovarian
UACC-257 melanoma = tested on: UACC-257 melanoma
LOX IMVI melanoma = tested on: LOX IMVI melanoma
CAKI-1 renal = tested on: CAKI-1 renal
CCRF-CEM leukemia = tested on: CCRF-CEM leukemia
M14 melanoma = tested on: M14 melanoma
MOLT-4 leukemia = tested on: MOLT-4 leukemia
K-562 leukemia = tested on: K-562 leukemia
NCI-H226 lung = tested on: NCI-H226 lung
HOP-62 NSCLC = tested on: HOP-62 NSCLC
A498 renal = tested on: A498 renal
SF-268 CNS = tested on: SF-268 CNS
T-47D breast = tested on: T-47D breast
SK-MEL-2 melanoma = tested on: SK-MEL-2 melanoma
786-0 renal = tested on: 786-0 renal
OVCAR-5 ovarian = tested on: OVCAR-5 ovarian
MALME-3M melanoma = tested on: MALME-3M melanoma
BT-549 breast = tested on: BT-549 breast
SN12C renal = tested on: SN12C renal
SNB-75 CNS = tested on: SNB-75 CNS
UO-31 renal = tested on: UO-31 renal
HS 578T breast = tested on: HS 578T breast
OVCAR-8 ovarian = tested on: OVCAR-8 ovarian
NCI-H522 lung = tested on: NCI-H522 lung
ACHN renal = tested on: ACHN renal
MDA-MB-231 breast = tested on: MDA-MB-231 breast
NCI/ADR-RES ovarian = tested on: NCI/ADR-RES ovarian
SF-539 CNS = tested on: SF-539 CNS
SNB-19 CNS = tested on: SNB-19 CNS
SR leukemia = tested on: SR leukemia
HL-60(TB) leukemia = tested on: HL-60(TB) leukemia
NCI-H23 lung = tested on: NCI-H23 lung
HCT-15 colon = tested on: HCT-15 colon
SK-OV-3 ovarian = tested on: SK-OV-3 ovarian
PC-3 prostate = tested on: PC-3 prostate
RPMI-8226 leukemia = tested on: RPMI-8226 leukemia
HCC-2998 colon = tested on: HCC-2998 colon
TK-10 renal = tested on: TK-10 renal
MCF7 breast = tested on: MCF7 breast
HOP-92 NSCLC = tested on: HOP-92 NSCLC
DU-145 prostate = tested on: DU-145 prostate
HT29 colon = tested on: HT29 colon
IGROV1 ovarian = tested on: IGROV1 ovarian
KM12 colon = tested on: KM12 colon
A549 NSCLC = tested on: A549 NSCLC
UACC-62 melanoma = tested on: UACC-62 melanoma
OVCAR-3 ovarian = tested on: OVCAR-3 ovarian

## COc1cccc(C2=C(c3cn(C)c4ccc(Cl)cc34)C(=O)NC2=O)c1
NCI-H460 lung
  GI50: 7.57 µM
  TGI: > 19.1 µM
RXF 393 renal
  GI50: 3.66 µM
  TGI: 8.33 µM
COLO 205 colon
  GI50: 3.92 µM
  TGI: 8.57 µM
SK-MEL-28 melanoma
  GI50: 7.87 µM
  TGI: > 20.5 µM
SK-MEL-5 melanoma
  GI50: 3.63 µM
  TGI: 8.35 µM
U251 CNS
  GI50: 5.94 µM
  TGI: > 16.8 µM
SW-620 colon
  GI50: 8.79 µM
  TGI: > 25 µM
HCT-116 colon
  GI50: 3.8 µM
  TGI: > 13.7 µM
SF-295 CNS
  GI50: 5.28 µM
  TGI: > 15.1 µM
MDA-MB-435
  GI50: 6.48 µM
  TGI: > 16.4 µM
OVCAR-4 ovarian
  GI50: 6.96 µM
  TGI: > 25 µM
UACC-257 melanoma
  GI50: 9.86 µM
  TGI: > 21.5 µM
LOX IMVI melanoma
  GI50: 4.92 µM
  TGI: > 16.1 µM
CAKI-1 renal
  GI50: 4.87 µM
  TGI: 16.8 µM
CCRF-CEM leukemia
  GI50: 4.39 µM
  TGI: 15.7 µM
M14 melanoma
  GI50: 10.3 µM
  TGI: > 25 µM
MOLT-4 leukemia
  GI50: 5.14 µM
  TGI: > 18.8 µM
K-562 leukemia
  GI50: 6.54 µM
  TGI: > 19.8 µM
NCI-H226 lung
  GI50: 5.17 µM
  TGI: 19.1 µM
HOP-62 NSCLC
  GI50: 7.22 µM
  TGI: 21.4 µM
A498 renal
  GI50: 4.03 µM
  TGI: 12.5 µM
SF-268 CNS
  GI50: 11.5 µM
  TGI: > 25 µM
T-47D breast
  GI50: 4.19 µM
  TGI: 17.4 µM
SK-MEL-2 melanoma
  GI50: 7.24 µM
  TGI: > 18 µM
786-0 renal
  GI50: 6.5 µM
  TGI: > 18.9 µM
OVCAR-5 ovarian
  GI50: 15.3 µM
  TGI: > 25 µM
MALME-3M melanoma
  GI50: 13.9 µM
  TGI: > 20 µM
BT-549 breast
  GI50: 7.01 µM
  TGI: > 19 µM
SN12C renal
  GI50: 4.96 µM
  TGI: 14.2 µM
SNB-75 CNS
  GI50: 3.1 µM
  TGI: > 25 µM
UO-31 renal
  GI50: 5.07 µM
  TGI: > 17.4 µM
HS 578T breast
  GI50: 6.76 µM
  TGI: > 25 µM
OVCAR-8 ovarian
  GI50: 6.61 µM
  TGI: > 20.3 µM
NCI-H522 lung
  GI50: 5.48 µM
  TGI: > 17.9 µM
ACHN renal
  GI50: 6.65 µM
  TGI: > 19.6 µM
MDA-MB-231 breast
  GI50: 8.3 µM
  TGI: > 20.6 µM
NCI/ADR-RES ovarian
  GI50: 6.13 µM
  TGI: 19.8 µM
SF-539 CNS
  GI50: 6.06 µM
  TGI: > 15.9 µM
SNB-19 CNS
  GI50: 13.4 µM
  TGI: > 25 µM
SR leukemia
  GI50: 5.77 µM
  TGI: > 18.6 µM
HL-60(TB) leukemia
  GI50: 6.84 µM
  TGI: 14.6 µM
NCI-H23 lung
  GI50: 7.15 µM
  TGI: > 19.1 µM
HCT-15 colon
  GI50: 6.4 µM
  TGI: > 25 µM
SK-OV-3 ovarian
  GI50: 7.29 µM
  TGI: > 22 µM
PC-3 prostate
  GI50: 6.16 µM
  TGI: > 19.6 µM
RPMI-8226 leukemia
  GI50: 5.9 µM
  TGI: > 20.4 µM
HCC-2998 colon
  GI50: 9.02 µM
  TGI: > 23 µM
TK-10 renal
  GI50: 10.4 µM
  TGI: > 23.8 µM
MCF7 breast
  GI50: 2850 nM
  TGI: > 25 µM
HOP-92 NSCLC
  GI50: > 25 µM
  TGI: > 25 µM
DU-145 prostate
  GI50: 10.9 µM
  TGI: > 22.1 µM
HT29 colon
  GI50: 4.14 µM
  TGI: > 24.1 µM
IGROV1 ovarian
  GI50: 7.62 µM
  TGI: > 17.5 µM
KM12 colon
  GI50: 4.95 µM
  TGI: 11.4 µM
A549 NSCLC
  GI50: 6.84 µM
  TGI: > 25 µM
UACC-62 melanoma
  GI50: 5.67 µM
  TGI: 12.8 µM
OVCAR-3 ovarian
  GI50: 7.47 µM
  TGI: > 17.2 µM
